Values joined by “and” are separate entries in the source; they are usually repeats but may differ in a detail not shown here. Identical values can stand only once. Toxic doses and inconclusive results are not listed.
Test system: CD2F1 mice, P388/ADR leukemia ip, median survival T/C
Experiment: NCI In Vivo Anticancer Drug Screen. Data for tumor model P388 Leukemia resistant to Adriamycin; NSC 123127, Developed at Scr 08 (intraperitoneal) in CD2F1 (CDF1) mice
Conditions: endpoint: median survival time, higher = longer survival
Method: The antitumor activity of compounds was measured in mice bearing transplantable tumors. Survival or tumor size were measured and the results are expressed as the measurement made in the treated group (T) divided by the measurement made in the vehicle treated control group (C). The tumor model used in this assay is P388 Leukemia resistant to Adriamycin; NSC 123127, Developed at Scr 08 (intraperitoneal) in CD2F1 (CDF1) mice

[1] = dose: 25.0 mg/kg/injection, schedule: Q01DX005 (ip), vehicle: saline with Tween-80
[2] = dose: 50.0 mg/kg/injection, schedule: Q01DX005 (ip), vehicle: saline with Tween-80

With `COc1cccc2c1C(=O)c1c(O)c3c(c(O)c1C2=O)C[C@@](O)(C(=O)CO)C[C@@H]3OC1CC(N)C(O)C(C)O1` (some centres not stated) the T/C (dose: 0.38 mg/kg/injection, schedule: Q01DX009 (ip), vehicle: saline) was 118 % of control, the T/C (dose: 0.43 mg/kg/injection, schedule: Q01DX009 (ip), vehicle: saline) was 86 % of control and the T/C (dose: 0.75 mg/kg/injection, schedule: Q01DX009 (ip), vehicle: saline) was 109 % of control. The T/C (dose: 0.97 mg/kg/injection, schedule: Q04DX002 (ip), vehicle: saline) was 110 % of control, the T/C (dose: 0.97 mg/kg/injection, schedule: Q04DX003 (ip), vehicle: saline) was 98 % of control and the T/C (dose: 0.97 mg/kg/injection, schedule: Q04DX003 (ip), vehicle: water) was 100 % of control. For the same compound, the T/C (dose: 1.2 mg/kg/injection, schedule: Q01DX009 (ip), vehicle: saline) was 98 % of control, the T/C (dose: 1.25 mg/kg/injection, schedule: Q01DX001 (ip), vehicle: saline) was 118 % of control and the T/C (dose: 1.5 mg/kg/injection, schedule: Q01DX009 (ip), vehicle: saline) was 108 % of control. The T/C (dose: 1.62 mg/kg/injection, schedule: Q04DX002 (ip), vehicle: saline) was 111 % of control, the T/C (dose: 1.62 mg/kg/injection, schedule: Q04DX003 (ip), vehicle: saline) was 107 % of control and the T/C (dose: 1.62 mg/kg/injection, schedule: Q04DX003 (ip), vehicle: water) was 100 % of control. The T/C (dose: 2.0 mg/kg/injection, schedule: Q01DX009 (ip), vehicle: saline) was 86 % of control, the T/C (dose: 2.16 mg/kg/injection, schedule: Q04DX003 (ip), vehicle: saline) was 100 % of control and the T/C (dose: 2.5 mg/kg/injection, schedule: Q01DX001 (ip), vehicle: water) was 124 % of control. For the same compound, the T/C (dose: 2.7 mg/kg/injection, schedule: Q04DX002 (ip), vehicle: saline) was 117 % of control, the T/C (dose: 2.7 mg/kg/injection, schedule: Q04DX003 (ip), vehicle: saline) was 100 % of control and the T/C (dose: 2.7 mg/kg/injection, schedule: Q04DX003 (ip), vehicle: water) was 101 % of control. The T/C (dose: 3.33 mg/kg/injection, schedule: Q01DX009 (ip), vehicle: saline) was 90 % of control, the T/C (dose: 3.6 mg/kg/injection, schedule: Q04DX003 (ip), vehicle: saline) was 102 % of control and the T/C (dose: 4.4 mg/kg/injection, schedule: Q01DX001 (ip), vehicle: saline) was 120 % of control. For the same compound, the T/C (dose: 4.5 mg/kg/injection, schedule: Q04DX002 (ip), vehicle: saline) was 120 % of control, the T/C (dose: 4.5 mg/kg/injection, schedule: Q04DX003 (ip), vehicle: saline) was 102 % of control and the T/C (dose: 4.5 mg/kg/injection, schedule: Q04DX003 (ip), vehicle: water) was 94 % of control. For the same compound, the T/C (dose: 4.5 mg/kg/injection, schedule: Q04DX003 (iv), vehicle: saline) was 109 % of control, the T/C (dose: 5.0 mg/kg/injection, schedule: Q01DX001 (ip), vehicle: water) was 109 % of control and the T/C (dose: 6.0 mg/kg/injection, schedule: Q04DX003 (ip), vehicle: saline) was 106 % of control. For the same compound, the T/C (dose: 6.2 mg/kg/injection, schedule: Q01DX001 (ip), vehicle: saline) was 116 % of control, the T/C (dose: 6.7 mg/kg/injection, schedule: Q01DX005 (ip), vehicle: saline) was 152 % of control and the T/C (dose: 6.7 mg/kg/injection, schedule: Q04DX003 (iv), vehicle: saline) was 102 % of control. For the same compound, the T/C (dose: 7.5 mg/kg/injection, schedule: Q04DX002 (ip), vehicle: saline) was 121 % of control, the T/C (dose: 7.5 mg/kg/injection, schedule: Q04DX003 (ip), vehicle: water) was 92 % of control and the T/C (dose: 10.0 mg/kg/injection, schedule: Q01DX001 (ip), vehicle: water) was 107 % of control. For the same compound, the T/C (dose: 10.0 mg/kg/injection, schedule: Q04DX003 (ip), vehicle: saline) was 87 % of control, the T/C (dose: 10.0 mg/kg/injection, schedule: Q04DX003 (iv), vehicle: saline) was 90 % of control and the T/C (dose: 12.5 mg/kg/injection, schedule: Q01DX001 (ip), vehicle: saline) was 109 % of control and 119 % of control. For the same compound, the T/C (dose: 15.0 mg/kg/injection, schedule: Q01DX005 (ip), vehicle: saline) was 107 % of control, the T/C (dose: 15.0 mg/kg/injection, schedule: Q04DX003 (iv), vehicle: saline) was 88 % of control and the T/C (dose: 16.0 mg/kg/injection, schedule: Q04DX003 (ip), vehicle: saline) was 90 % of control. For the same compound, the T/C (dose: 20.0 mg/kg/injection, schedule: Q01DX001 (ip), vehicle: water) was 88 % of control.
In the case of `O=C1CN(CCN2CC(=O)N(CN3CCOCC3)C(=O)C2)CC(=O)N1CN1CCOCC1`, the T/C (dose: 12.5 mg/kg/injection, schedule: Q01DX005 (ip), vehicle: water) is reported as 107 % of control, the T/C (dose: 25.0 mg/kg/injection, schedule: Q01DX005 (ip), vehicle: water) is reported as 105 % of control and the T/C (dose: 50.0 mg/kg/injection, schedule: Q01DX005 (ip), vehicle: water) is reported as 96 % of control. The T/C (dose: 100.0 mg/kg/injection, schedule: Q01DX005 (ip), vehicle: water) was 100 % of control.
In the case of `Nc1ccc2ccc(NS(=O)(=O)N3CCCCC3)cc2c1`, the T/C [1] is reported as 111 % of control, the T/C [2] is reported as 107 % of control and the T/C (dose: 100.0 mg/kg/injection, schedule: Q01DX005 (ip), vehicle: saline with Tween-80) is reported as 106 % of control. The T/C (dose: 200.0 mg/kg/injection, schedule: Q01DX005 (ip), vehicle: saline with Tween-80) was 101 % of control and the T/C (dose: 400.0 mg/kg/injection, schedule: Q01DX005 (ip), vehicle: saline with Tween-80) was 99 % of control.
For `O=C(O)c1cc(C(=O)O)c(C(=O)O)cc1C(=O)O.[NH2-].[NH2-].[NH2-].[NH2-].[Pt+2].[Pt+2]`, the T/C (dose: 3.12 mg/kg/injection, schedule: Q01DX005 (ip), vehicle: saline) was 123 % of control, the T/C (dose: 25.0 mg/kg/injection, schedule: Q01DX005 (ip), vehicle: saline) was 167 % of control and the T/C (dose: 25.0 mg/kg/injection, schedule: Q01DX005 (ip), vehicle: suspension in saline) was 150 % of control. The T/C (dose: 41.67 mg/kg/injection, schedule: Q01DX005 (ip), vehicle: suspension in saline) was 178 % of control.
In the case of `O=C(O)Cc1cccc2c(=O)cc(-c3ccccc3)oc12`, the T/C (dose: 24.12 mg/kg/injection, schedule: Q01DX005 (ip), vehicle: saline) is reported as 102 % of control, the T/C (dose: 30.0 mg/kg/injection, schedule: Q01DX009 (ip), vehicle: saline) is reported as 114 % of control and the T/C (dose: 30.0 mg/kg/injection, schedule: Q01DX009 (ip), vehicle: sodium bicarbonate) is reported as 124 % of control. The T/C (dose: 40.2 mg/kg/injection, schedule: Q01DX005 (ip), vehicle: saline) was 118 % of control, the T/C (dose: 44.0 mg/kg/injection, schedule: Q01DX009 (ip), vehicle: sodium bicarbonate) was 167 % of control and the T/C (dose: 60.0 mg/kg/injection, schedule: Q04DX002 (ip), vehicle: sodium bicarbonate) was 118 % of control. For the same compound, the T/C (dose: 67.0 mg/kg/injection, schedule: Q01DX009 (ip), vehicle: saline) was 187 % of control, the T/C (dose: 67.0 mg/kg/injection, schedule: Q01DX009 (ip), vehicle: sodium bicarbonate) was 187 % of control and 237 % of control and 245 % of control and the T/C (dose: 90.0 mg/kg/injection, schedule: Q04DX002 (ip), vehicle: sodium bicarbonate) was 118 % of control. The T/C (dose: 100.0 mg/kg/injection, schedule: Q01DX009 (ip), vehicle: sodium bicarbonate) was 207 % of control and 240 % of control and 291 % of control, the T/C (dose: 111.67 mg/kg/injection, schedule: Q01DX005 (ip), vehicle: saline) was 161 % of control and the T/C (dose: 134.0 mg/kg/injection, schedule: Q04DX002 (ip), vehicle: sodium bicarbonate) was 112 % of control. The T/C (dose: 150.0 mg/kg/injection, schedule: Q01DX009 (ip), vehicle: saline) was 104 % of control, the T/C (dose: 150.0 mg/kg/injection, schedule: Q01DX009 (ip), vehicle: sodium bicarbonate) was 233 % of control and 260 % of control and 124 % of control and the T/C (dose: 175.0 mg/kg/injection, schedule: Q01DX009 (ip), vehicle: sodium bicarbonate) was 103 % of control. For the same compound, the T/C (dose: 186.12 mg/kg/injection, schedule: Q01DX005 (ip), vehicle: saline) was 164 % of control.
`N=C(N)c1ccc(N=NNc2ccc(C(=N)N)cc2)cc1` was tested, and the T/C (dose: 12.5 mg/kg/injection, schedule: Q01DX005 (ip), vehicle: saline with Tween-80) was 105 % of control, the T/C [1] was 115 % of control and the T/C [2] was 117 % of control.

Reference: PubChem BioAssay AID322 (DTP/NCI, 2004)
